Data as given in US4992418A, “Superactive human insulin analogue-[10-Aspartic Acid-B]Human Insulin” (Mount Sinai School of Medicine, priority 1987, dated 1991).

Columns and labels:
[1] = molecular target: T1, insulin receptors in rat liver plasma membranes (Rattus norvegicus, UniProt P15127); experiment: Insulin receptor binding assay (125I-insulin displacement, rat liver plasma membranes)
T1 construct: Rat liver plasma membranes were prepared as described by Horvat et al; from tissue; host or cells: rat liver plasma membranes
T1 sequence (P15127 27-759 limits assumed): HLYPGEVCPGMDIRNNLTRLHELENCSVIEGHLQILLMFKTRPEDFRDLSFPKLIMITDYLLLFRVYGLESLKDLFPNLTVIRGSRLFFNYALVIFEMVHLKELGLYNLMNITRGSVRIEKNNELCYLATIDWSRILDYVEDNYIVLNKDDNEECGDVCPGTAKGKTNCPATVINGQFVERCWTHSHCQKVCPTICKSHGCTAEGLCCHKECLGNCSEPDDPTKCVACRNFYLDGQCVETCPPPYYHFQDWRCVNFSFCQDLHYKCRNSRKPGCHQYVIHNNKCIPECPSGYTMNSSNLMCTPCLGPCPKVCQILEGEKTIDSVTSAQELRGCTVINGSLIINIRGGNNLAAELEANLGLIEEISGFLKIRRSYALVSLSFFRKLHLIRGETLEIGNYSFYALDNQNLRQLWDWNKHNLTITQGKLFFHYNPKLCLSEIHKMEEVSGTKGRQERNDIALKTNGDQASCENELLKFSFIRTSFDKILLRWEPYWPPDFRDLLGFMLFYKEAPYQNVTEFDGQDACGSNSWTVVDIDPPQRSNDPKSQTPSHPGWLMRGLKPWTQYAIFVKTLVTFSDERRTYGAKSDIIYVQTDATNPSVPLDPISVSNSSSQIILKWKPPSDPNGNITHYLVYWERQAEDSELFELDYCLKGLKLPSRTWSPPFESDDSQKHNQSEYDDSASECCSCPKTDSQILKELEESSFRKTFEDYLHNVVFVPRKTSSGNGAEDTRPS
T1 sequence (P15127 764-1383 partner limits assumed): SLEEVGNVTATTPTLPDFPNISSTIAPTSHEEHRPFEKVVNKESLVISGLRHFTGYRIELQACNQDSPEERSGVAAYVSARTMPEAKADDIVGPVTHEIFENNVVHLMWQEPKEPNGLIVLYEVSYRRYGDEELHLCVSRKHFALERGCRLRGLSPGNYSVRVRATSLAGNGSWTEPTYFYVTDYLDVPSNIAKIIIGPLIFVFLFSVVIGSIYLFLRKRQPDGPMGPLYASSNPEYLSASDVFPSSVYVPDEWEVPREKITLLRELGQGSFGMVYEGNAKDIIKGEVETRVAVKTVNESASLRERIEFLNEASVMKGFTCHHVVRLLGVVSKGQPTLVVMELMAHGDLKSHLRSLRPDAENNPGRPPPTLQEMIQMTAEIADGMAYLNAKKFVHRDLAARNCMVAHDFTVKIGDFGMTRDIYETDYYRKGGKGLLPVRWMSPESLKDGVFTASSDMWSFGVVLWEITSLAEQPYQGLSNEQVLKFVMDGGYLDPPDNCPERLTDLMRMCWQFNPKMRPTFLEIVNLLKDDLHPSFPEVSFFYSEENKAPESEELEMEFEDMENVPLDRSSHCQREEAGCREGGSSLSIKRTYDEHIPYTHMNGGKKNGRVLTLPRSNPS
Method: Receptor binding assays using rat liver plasma membranes were performed as described by Kitagawa et al., Biochemistry (1984), vol. 23, pp. 1405-1413. Rat liver plasma membranes were prepared as described by Horvat et al., Biochim. Biophys. Acta (1975), vol. 382, pp. 609-620.
Following incubation for 45 min at 24° C., the mixtures were diluted with 2.0 ml of ice cold 0.1M sodium phosphate, pH 7.4, containing 0.1% fraction V bovine serum albumin and immediately filtered through cellulose-acetate filters. The filters were washed twice with the ice cold buffer, dried, and then radioactivity was counted in a scintillation counter using Filtron-X®. Nonspecific binding, defined as radioactivity remaining on the filters when the incubations contained 1×10^-5 M unlabeled insulin, was subtracted from all values.
The data points shown in FIG. 3 represent the mean of triplicate determinations in a representative assay which was performed four times. The maximum binding in these assays amounted to 8.2% of the input radioactivity.

[2] = tested on: rat adipocytes
Method: The assays measured the ability of the insulin analogue as compared to bovine insulin to convert, [3-^3 H] glucose into lipids.
Adipocytes were prepared by incubating epididymal and perirenal fat pads obtained from male rats weighing 200-300 g with 1.0 mg/ml collagenase for 60 min at 37° C., followed by filtration through gauze and then through fine-mesh silk. Cells were washed twice by flotation in a clinical centrifuge before suspension for use. The incubation medium was Krebs-Ringer bicarbonate containing half the recommended calcium, 0.5 mM glucose, and 3% fatty acid free bovine serum albumin, with 95% O2 -5% CO2 as the gas phase. […] Cells were preincubated for 45 min at 37° C. before the addition of [3-^3 H] glucose. Incubation was continued for 60 min and stopped by the addition of 0.2 ml of 5N H2 SO4 and 0.2 ml of corn oil to aid in the extraction of lipids. Samples were extracted with 10 ml of Soluscint-0® for 30 min at room temperature before counting the radioactivity in a scintillation counter. […] Zero and 100% stimulation of lipogenesis were defined as radioactivity observed in the absence and presence, respectively, of 9.1×10^-10 M insulin (5.5 ng/ml).
Stimulation, expressed as percent of maximum, was plotted as a function of the agonist concentration. […]

[3] = tested on: Guinea pig antiserum to porcine insulin; conditions: relative to bovine or porcine insulin
Method: Guinea pig antiserum to porcine insulin and goat anti-guinea pig-γ globulin were used at a 1:25 dilution in assay buffer (sodium phosphate, 0.04M, pH 7.6, containing 0.154M NaCl, 0.1% gelatin, and 0.01% thimerosal). […] After incubation at room temperature overnight, 0.2 ml of the precipitating antibody (goat anti-guinea pig-γ globulin) was added, and the tubes were further incubated overnight at room temperature. Immune precipitates were collected on cellulose-acetate filters and washed with two successive 1.0 mL portions of ice-cold assay buffer. Filters were dried and radioactivity was counted in a scintillation counter in Filtron-X®. Straight-line plots of Co /Ci were constructed by linear regression analysis as described by Hales et al., Biochem. J. (1963), vol.

[4] = molecular target: insulin receptors (Rattus norvegicus, UniProt P15127); experiment: Standard in vitro assays measuring relative insulin potency (summary statements); conditions: in vitro experiments of the Examples
insulin receptors, sequence (P15127 27-759 limits assumed): as the sequence (P15127 27-759 limits assumed) above
insulin receptors, sequence (P15127 764-1383 partner limits assumed): as the sequence (P15127 764-1383 partner limits assumed) above

[10-Aspartic acid-B] human insulin
Shape of dose response curves in receptor binding ([1]; compared with bovine insulin, FIG. 3): essentially parallel
Binding to the insulin receptor relative to natural insulins ([1]; more tightly than natural insulins): about five
Relative potency: concentration ratio required to inhibit 50% of specific 125I-insulin binding ([1]; relative to bovine insulin, rat liver plasma membranes, assay performed four times): about 534±146%
Agonist character / maximum stimulation of lipogenesis ([2]; compared with natural bovine insulin, FIG. 4): full agonist
Relative potency: concentration ratio required to produce 50% of maximum stimulation of lipogenesis ([2]; relative to bovine insulin, isolated rat adipocytes, assays performed four times): 435±144%
Potency in radioimmunoassay (ratio of slopes of Co/Ci plots) [3]: approximately equal potency
In vitro activity relative to natural insulin (in words) [4]: several fold more active
